From patent US12491186B2, “EGFR inhibitors for treating keratodermas” (INSERM (Institut National de la Santé et de la Recherche …, priority 2018, dated 2025)
Like-named read-outs stand apart in the source and are kept apart here.

Tested on: OS patients

## C#Cc1cccc(Nc2ncnc3cc(OCCOC)c(OCCOC)cc23)c1.Cl [Erlotinib]
3 OS patients
  overall clinical outcome: dramatic improvement
OS patients on Erlotinib, after three months
  pain outcome after three months: total disappearance and spontaneous pain drug removal
human, in vivo
  only persistent side effect: moderate acne reaction
  side effect leading to dose reduction: abdominal pain and nausea
Patient 2 (mild PPK), Erlotinib 50 mg
  keratoderma regression completed at day: 30 days
Patient 3, Erlotinib started at 50 mg
  reduction of pain: later
Patients 1 and 2, Erlotinib started at 100 mg (patient 2 reduced to 50 mg)
  reduction of pain: rapid reduction of pain was observed within days
Patients 1 and 3 (severe PPK)
  keratoderma regression completed at day: 90 days
